According to BindingDB's records for doi:10.1016/j.ejmech.2017.04.079 (Harvard Medical School, 2017):

Legend:
[1] = Inhibition of EML4/ALK (unknown origin) transfected in mouse BAF3 cells assessed as reduction in cell viability after 72 hrs by MTS assay
[2] = Inhibition of EGFR L858R mutant (unknown origin) transfected in mouse BAF3 cells assessed as reduction in cell viability after 72 hrs by MTS assay
[3] = Inhibition of EGFR T790M/L858R double mutant (unknown origin) transfected in mouse BAF3 cells assessed as reduction in cell viability after 72 hrs by MTS assay

C=CC(=O)Nc1cc(Nc2nccc(-c3cn(C)c4ccccc34)n2)c(OC)cc1N(C)CCN(C)C [AZD-9291]
EC50 [1]: 1.75 µM

C=CC(=O)Nc1cc(Nc2nccc(Nc3ccccc3P(C)(C)=O)n2)c(OC)cc1N(C)CCN(C)C
EC50 [1]: > 5 µM

C=CC(=O)Nc1cccc(Oc2nc(Nc3ccc(N4CCN(C)CC4)cc3OC)ncc2Cl)c1
EC50 [1]: 6.26 µM

CCC(=O)Nc1cc(Nc2ncc(Cl)c(Nc3ccccc3S(=O)(=O)C(C)C)n2)c(OC)cc1N(C)CCN(C)C
EC50 [2]: 0.666 µM
EC50 [3]: 0.972 µM
